Measurements from US11844350B2, “Plant growth regulation” (Syngenta Participations AG, priority 2017, dated 2023).

Tested on: rice (Oryza sativa L.) varieties ADT45
Experiment: Plant growth regulation field trial in rice, India (lodging, plant height, heat stress symptoms)
Assay type: in vivo
Protocol: Field trials were setup during the hot season in Annanagar and Kumbakonam in India. Local rice (Oryza sativa L.) varieties ADT45 was mechanically transplanted at four plants per hill with a plant spacing of 16 cm and a row spacing of 30 cm. All trials were performed in good level of water management. Fertilizer application, and weed, insect and disease control were carried out in accordance with the best local practice across the trial area. Commercial treated seeds were used (with no neonicotinoid compounds present).
The trial design was a randomized bloc design, with a plot size of 40 m^2 (12 rows, each […] and 10 m long); each trial had four replicates.
Overall trial quality was very high: there was no insect damage and no disease pressure or weeds; the plots were very homogenous. Heat stress level was low to medium with 5-10% empty spikelets in the untreated control.

COc1cccc(Nc2nc(F)nc3[nH]cnc23)c1 [Formula (Ia)]
Lodging (%) (10 g ai/ha, applied at panicle initiation (BBCH 30)): 29.0% | Lodging (%) (20 g ai/ha, applied at BBCH 30): 56.0% | Lodging compared to the untreated control (result in words): significantly reduces lodging
